Patent US20230383129A1, “ANTIFOULING COMPOUNDS” (I-Tech AB, priority 2020, published 2023)

Tests used:
[1] = test system: barnacle cyprid larva; details: barnacles; cited from earlier work
[2] = Stability/hydrolysis of monomers in ethanol and PBS buffer followed by TLC (Setup 1); type: physicochemical; details: after two weeks
Protocol: The stability of the carbamate-(M3), urea-(M4) and sulfonylderivative of medetomidine (M2 and M0) were studied in ethanol and phosphate-buffered saline (PBS) buffer. Thin-layer chromatography (TLC) was used to follow the decomposition of the derivatives to free medetomidine. It took approximately two weeks until most of the derivatives stored at room temperature to decompose. If the storage temperature was +6° C. no decomposition was observed.
Nine vials were prepared. Vial 1 contained reference compound medetomidine dissolved in ethanol (1 ml). Substance M2 (25 mg) was added to vial 2 and 3. Substance M3 (25 mg) was added to vial 4 and 5. Substance M4 (25 mg) was added to vial 6 and 7 and substance M0 was added to vial 8 and 9. The solid material in vials 2 to 9 were dissolved in ethanol (1 ml) and PBS buffer pH 7.4 (1 ml) to mimic sea water containing different salts and having a pH slightly basic. Ethanol was chosen as solvent to increase the solubility of the substances. During the study vial 1, 3, 5, 7 and 9 were stored at room temperature, whereas vial 2, 4, 6 and 8 were stored in a refrigerator at +6° C. Stability of the compounds was studied after 0, 1, 2, 5, 6, 9, 13 and 15 days using TLC and dichloromethane—methanol (95-5) as eluent.

[3] = Release of I from monomers into artificial seawater, LC-MS (Setup 2); type: physicochemical; details: for Concentration of I released: artificial seawater 3% NaCl pH 8.0, ambient temperature; for Concentration of I (near constant over the study): artificial seawater, days 10-25
Protocol: The stability of M1 and M4 was evaluated via quantification of the release of I into artificial seawater (3% NaCl, pH 8.0). For the experiments, compound M1 (0.023 g) was suspended in 5 mL artificial seawater, while M4 (0.044 g) were suspended in 10 mL artificial seawater. The solutions were stirred (300 rpm) at ambient temperatures and samples were collected at 10, 15, 20 and 25 days. The samples were stored in freezer 2-2.5 months prior to LC-MS analysis.
Samples from the release studies were analyzed using LC-MS. The LC-MS system was composed of an Acquity I-class UPLC with a Waters Xevo G2-S Qtof. The chromatographic separation was obtained on a C18 column with gradient elution (Eluent A, 0.1% NH4 in MQ-water and Eluent B, 100% acetonitrile). The samples (from freezer) were extracted with hexane and the organic extracts were analyzed by LC-MS. Three external calibration curves for I, M1 and M4 were prepared the same way as the samples and used for quantification.

[4] = ethanol/PBS buffer pH 7.4, refrigerator +6° C.
[5] = ethanol/PBS buffer pH 7.4, room temperature

SMILES	concentration impeding larval settlement [1] [nM]	decomposition to free medetomidine (TLC) [2, 4]	decomposition to free medetomidine (TLC) [2, 5]	Concentration of I released ([3]; incubation 10 days) [ng/mL]	Concentration of I released ([3]; incubation 15 days) [ng/mL]	Concentration of I released ([3]; incubation 20 days) [ng/mL]	Concentration of I released ([3]; incubation 25 days) [ng/mL]	Concentration of I (near constant over the study) [3] [ng/mL]
Cc1cccc(C(C)c2c[nH]cn2)c1C (racemic) [medetomidine, (±)-4-[1-(2,3-dimethylphenyl)ethyl)-1H-imidazole]	1 to 10	–	–	–	–	–	–	–
Cc1cccc(C(C)c2cn(S(C)(=O)=O)cn2)c1C (stereo not drawn) [Compound M0, 4-[1-(2,3-dimethylphenyl)ethyl]-1-(methanesulfonyl)-1H-imidazole]	–	stable	stable	–	–	–	–	–
C=C(C)C(=O)n1cnc(C(C)c2cccc(C)c2C)c1 (stereo not drawn) [Compound M1, 1-{4-[1-(2,3-dimethylphenyl)ethyl]-1H-imidazol-1-yl}-2-methylprop-2-en-1-one]	–	–	–	9330.0	9905.8	9748.8	9820.4	~9000
C=CCS(=O)(=O)n1cnc(C(C)c2cccc(C)c2C)c1 (stereo not drawn) [Compound M2, 4-[1-(2,3-dimethylphenyl)ethyl]-1-(prop-2-ene-1-sulfonyl)-1H-imidazole]	–	mixture of medetomidine and the starting material	only medetomidine	–	–	–	–	–
C=CCOC(=O)n1cnc(C(C)c2cccc(C)c2C)c1 (stereo not drawn) [Compound M3, prop-2-en-1-yl 4-[1-(2,3-dimethylphenyl)ethyl]-1H-imidazole-1-carboxylate]	–	mixture of medetomidine and the starting material	only medetomidine	–	–	–	–	–
C=CCNC(=O)n1cnc(C(C)c2cccc(C)c2C)c1 (stereo not drawn) [Compound M4, 4-[1-(2,3-dimethylphenyl)ethyl]-N-(prop-2-en-1-yl)-1H-imidazole-1-carboxamide]	–	stable	decomposition to medetomidine as well as non-hydrolyzed M4	5028.9	5592.2	5078.0	–	~5000
